# Results reported in paper PMC5681660, “Reduced hepatitis B and D viral entry using clinically applied drugs as novel inhibitors of the bile acid transporter NTCP” (Scientific Reports, 2017).
# Counter-ions that a name gives are not always drawn. Like-named read-outs stand apart in the source and are kept apart here.
# Key:
# human NTCP [1] = biological target: T1, human NTCP (Homo sapiens, UniProt Q14973); experiment: Screening taurocholate uptake assay (96-well, [14C]taurocholate, 10 µM drug)
# T1 sequence (Q14973 1-349): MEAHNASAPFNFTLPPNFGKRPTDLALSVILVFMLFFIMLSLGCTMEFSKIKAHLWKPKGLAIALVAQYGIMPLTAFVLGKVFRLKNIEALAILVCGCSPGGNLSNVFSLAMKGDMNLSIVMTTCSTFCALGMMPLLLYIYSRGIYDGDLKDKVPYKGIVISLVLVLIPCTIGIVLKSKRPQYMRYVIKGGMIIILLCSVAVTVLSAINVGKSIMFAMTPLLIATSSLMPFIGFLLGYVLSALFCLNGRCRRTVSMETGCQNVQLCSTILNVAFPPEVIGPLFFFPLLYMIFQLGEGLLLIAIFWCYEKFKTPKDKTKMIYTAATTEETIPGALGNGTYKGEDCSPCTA
# human NTCP [2] = biological target: T1, human NTCP; experiment: Screening fluorescent competitive Myrcludex B-FITC binding assay (96-well, 10 µM drug)
# [3] = Prestwick library screen, 10 µM drug, B-score of taurocholate uptake
# [4] = combined ranking from functional and binding assay B-scores
# [5] = Prestwick library screen, 10 µM drug, B-score of Myrcludex B-FITC binding
# [6] = combined ranking from functional and binding screening assays
# [7] = screen, 10 µM drug, taurocholate uptake
# [8] = screen, 10 µM drug, Myrcludex B-FITC binding
# [9] = Prestwick library screen, taurocholate uptake, 10 µM drug
# [10] = ranking score beside the functional and binding assay B-scores of the screen
# [11] = Prestwick library screen, Myrcludex B-FITC binding, 10 µM drug
Compound,B-score functional assay (human NTCP [1]; [3]),Ranking score (human NTCP [1]; [4]),B-score binding assay (human NTCP [2]; [5]),Ranking score (human NTCP [1]; [6]),B-score functional assay (human NTCP [1]; [7]),B-score binding assay (human NTCP [2]; [8]),B-score functional assay (human NTCP [1]; [9]),Ranking score (human NTCP [1]; [10]),B-score binding assay (human NTCP [2]; [11]),also measured
CC(C)(C)NC[C@H](O)COc1nsnc1N1CCOCC1.O=C(O)/C=C\C(=O)O [Timolol maleate salt],1.166,1052.08,0.866,,,,,,,
CNCCC=C1c2ccccc2CCc2ccccc21 [Nortriptyline hydrochloride],1.081,1101.36,1.407,,,,,,,
CO/N=C(\C(=O)N[C@@H]1C(=O)N2C(C(=O)O)=C(COC(C)=O)CS[C@H]12)c1csc(N)n1 [Cefotaxime sodium salt],,,,382.157,3.35,-1.895,,,,
CC(C)COCC(CN(Cc1ccccc1)c1ccccc1)N1CCCC1 (stereo not drawn) [Bepridil hydrochloride],,,,392.989,1.07,-1.626,,,,
"CC[C@@]1(O)C(=O)OCc2c1cc1n(c2=O)Cc2cc3ccccc3nc2-1 [Camptothecine (S,+)]",0.986,879.695,0.08,,,,,,,
CCN1CCCC1CNC(=O)c1cc(S(=O)(=O)CC)c(N)cc1OC (stereo not drawn) [Amisulpride],0.107,873.097,0.863,,,,,,,
C[C@]12CCC(=O)C=C1C=C[C@@H]1[C@@H]2CC[C@@]2(C)[C@H]1CC[C@@]21CCC(=O)O1 [Canrenone],,,,379.419,-0.551,-0.43,,,,
C#C[C@]1(O)CC[C@H]2[C@@H]3CCC4=CC(=O)CC[C@]4(C)[C@H]3CC[C@@]21C [Ethisterone],,,,,,,-0.564,653.06,2.018,
CCOc1ccccc1OC(c1ccccc1)C1CNCCO1.CS(=O)(=O)O (stereo not drawn) [Reboxetine mesylate],,,,,,,1.175,814.737,-0.028,
CN(C)C(=N)N=C(N)N [Metformin hydrochloride],,,,,,,-0.092,761.884,1.144,
COc1ccccc1N1CCN(CCCNc2cc(=O)n(C)c(=O)n2C)CC1 [Urapidil hydrochloride],0.807,1027.42,1.015,,,,,,,
CC=CC1=C(C(=O)O)N2C(=O)[C@@H](NC(=O)[C@H](N)c3ccc(O)cc3)[C@H]2SC1 [Cefprozil],,,,364.678,0.201,-1.441,,,,
CC(=O)[C@H]1CC[C@H]2[C@@H]3C[C@H](C)C4=CC(=O)CC[C@]4(C)[C@H]3[C@@H](O)C[C@]12C [Medrysone],,,,406.005,-0.706,-0.142,,,,
CC(=O)O[C@]1(C(C)=O)CC[C@H]2[C@@H]3C=C(C)C4=CC(=O)CC[C@]4(C)[C@H]3CC[C@@]21C [Megestrol acetate],0.476,869.581,0.319,,,,,,,
CC1(C)O[C@@H]2C[C@H]3[C@@H]4C[C@H](F)C5=CC(=O)C=C[C@]5(C)[C@H]4[C@@H](O)C[C@]3(C)[C@]2(C(=O)CO)O1 [Flunisolide],,,,,,,0.152,805.548,0.284,
CCCC1C(=O)N2C(N(C)C)=Nc3ccc(C)cc3N2C1=O (stereo not drawn) [Azapropazone],,,,,,,,,,B-score functional assay (human NTCP [1]): -0.788; Ranking score (human NTCP [1]): 190.672; B-score binding assay (human NTCP [2]): -1.852
COc1cc(NS(=O)(=O)c2ccc(N)cc2)ncn1 [Sulfamonomethoxine],,,,,,,-0.097,680.363,0.362,
C=C1C[C@H]2[C@@H]3C=C(C)C4=CC(=O)CC[C@]4(C)[C@H]3CC[C@]2(C)[C@@]1(OC(C)=O)C(C)=O [Melengestrol acetate],,,,323.966,-2.447,1.224,,,,

Compound,B-score functional assay (human NTCP [1]; [3]),Ranking score (human NTCP [1]; [4]),B-score binding assay (human NTCP [2]; [5]),Ranking score (human NTCP [1]; [6]),B-score functional assay (human NTCP [1]; [7]),B-score binding assay (human NTCP [2]; [8]),B-score functional assay (human NTCP [1]; [9]),Ranking score (human NTCP [1]; [10]),B-score binding assay (human NTCP [2]; [11]),also measured
Nc1nnc(-c2cccc(Cl)c2Cl)c(N)n1 [Lamotrigine],,,,,,,0.153,756.135,0.084,
CCSc1ccc2c(c1)N(CCCN1CCN(C)CC1)c1ccccc1S2.O=C(O)CC(O)C(=O)O.O=C(O)CC(O)C(=O)O [Thiethylperazine dimalate],0.623,1093.79,3.252,,,,,,,
CCCCOc1ccc(OCCCN2CCOCC2)cc1 [Pramoxine hydrochloride],1.223,1022.18,0.619,,,,,,,
C[C@H]1O[C@H](O[C@H]2[C@H](O)[C@@H](O)[C@@H](O[C@H]3[C@H](O)[C@@H](O)C(O)O[C@@H]3CO)O[C@@H]2CO)[C@H](O)[C@@H](O)[C@@H]1N[C@H]1C=C(CO)[C@@H](O)[C@H](O)[C@H]1O (stereo partly drawn) [Acarbose],,,,,,,1.632,792.136,-0.109,
CCCCOc1cc(C(=O)OCCN(CC)CC)ccc1N [Benoxinate hydrochloride],,,,454.623,0.537,-1.11,,,,
CN(C)CCC=C1c2ccccc2CCc2ccccc21.Cl [Amitryptiline hydrochloride],,,,,,,-0.217,769.935,2.835,
CCCCNc1cc(C(=O)O)cc(S(N)(=O)=O)c1Oc1ccccc1 [Bumetanide],0.161,907.588,1.043,,,,,,,
Fc1ccc(C(c2ccc(F)cc2)N2CCN(C/C=C/c3ccccc3)CC2)cc1 [Flunarizine dihydrochloride],,,,,,,0.875,816.419,0.001,
O=C(O)c1cccnc1Nc1cccc(C(F)(F)F)c1 [Niflumic acid],,,,,,,0.166,675.036,-0.054,
COC(=O)C1=C(C)NC(C)=C(C(=O)O[C@@H]2CCCN(Cc3ccccc3)C2)[C@@H]1c1cccc([N+](=O)[O-])c1.Cl (racemic) [Benidipine hydrochloride],,,,426.727,-0.759,-0.032,,,,
CN(C)CCN(Cc1ccc(Cl)cc1)c1ccccn1.Cl [Chloropyramine hydrochloride],,,,387.298,-2.146,2.853,,,,
CC[C@@H]1C(=O)OC[C@@H]1Cc1cncn1C [Pilocarpine nitrate],0.794,931.987,0.358,,,,,,,
CC(C)OC(=O)CCC/C=C\C[C@@H]1[C@@H](CC[C@@H](O)CCc2ccccc2)[C@H](O)C[C@@H]1O [Latanoprost],,,,347.885,-2.131,0.817,,,,
c1ccc2c(c1)CCCC2C1=NCCN1 (stereo not drawn) [Tetrahydrozoline hydrochloride],0.112,952.65,1.943,,,,,,,
Clc1ccc2nsnc2c1NC1=NCCN1 [Tizanidine HCl],,,,334.885,-0.107,-1.169,,,,
CC(=O)Nc1ccc(CC(=O)O)cc1 [Actarit],,,,,,,-0.304,719.277,1.648,
CC(=O)OCC(=O)[C@@]1(O)CC[C@H]2[C@@H]3CCC4=CC(=O)CC[C@]4(C)[C@@]3(F)[C@@H](O)C[C@@]21C [Fludrocortisone acetate],,,,430.869,0.011,-0.826,,,,
